Reference: patent EP1003508B1, “ANTIMUTAGENIC AGENTS” (The GRASSETTI Family Trust, priority 1997, dated 1999)
Where two headings read alike, the source gives them in different places.

Assays:
[1] = system: Salmonella Typhimurium bacteria T-100; experiment: microbe, parasite or virus in culture; assay type: cell-based; conditions: for Number of Colonies Per Plate With Inhibitor: inhibitor 0.3 mg/plate added one hour before carcinogen, average of 3; for inhibition at 0.3 mg/plate: Salmonella enterica, TYPHIMURIUM
[2] = target: T1, poly(ADP-ribose) polymerase (ADPRP) (Sus scrofa, UniProt I3LDH3); experiment: Inhibition of ADPRP enzyme activity; assay type: biochemical, pig
T1 construct: ADPRP was prepared from pig thymus using the method of Khan and Shall; from tissue; host or cells: pig thymus
Protocol: ADPRP was prepared from pig thymus using the method of Khan and Shall (Biochem. Soc. Transactions 4:778 (1976)) with various modifications. Enzyme activity was approximately linear up to 15-20 minutes with NAD substrate concentration of 25 µM. Typical maximum enzyme activity was around 0.003 nmol product formed/minute in the assay (i.e. approximately 0.1% of substrate utilized). KM was approximately 25 µM.
Using a standard assay mix containing 2mM dithiothreitol (DTT) and […] crude enzyme/ml incubation, three experiments were performed with 6,6'-dithiodinicotinic acid added at concentrations varying from 5 µg/ml to 600 µg/ml (i.e. 1/60th molar equivalent of DTT to 2 molar equivalents). […] INHIBITION % OF CONTROLS
These are values for individual incubations which were stopped at either 7.5, 15, or 20 minutes.

[3] = Observed toxicity / tolerability; conditions: can be taken in doses of at least approximately 0.1 gram per day for indefinite periods
Text: It can be taken in doses of at least approximately 0.1 gram per day for indefinite periods. This fills the requirements for a non-toxic, low-cost chemopreventive agent, which could be administered orally.

[4] = system: metastases; conditions: mice; Grassetti 1970, Nature 228:282; cited from earlier work
[5] = 2mM DTT, individual incubation, read-out: Percent Inhibition at: 7.5 min.
[6] = 2mM DTT, individual incubation, read-out: Percent Inhibition at: 15 min.

T1 sequence (I3LDH3 1-1017): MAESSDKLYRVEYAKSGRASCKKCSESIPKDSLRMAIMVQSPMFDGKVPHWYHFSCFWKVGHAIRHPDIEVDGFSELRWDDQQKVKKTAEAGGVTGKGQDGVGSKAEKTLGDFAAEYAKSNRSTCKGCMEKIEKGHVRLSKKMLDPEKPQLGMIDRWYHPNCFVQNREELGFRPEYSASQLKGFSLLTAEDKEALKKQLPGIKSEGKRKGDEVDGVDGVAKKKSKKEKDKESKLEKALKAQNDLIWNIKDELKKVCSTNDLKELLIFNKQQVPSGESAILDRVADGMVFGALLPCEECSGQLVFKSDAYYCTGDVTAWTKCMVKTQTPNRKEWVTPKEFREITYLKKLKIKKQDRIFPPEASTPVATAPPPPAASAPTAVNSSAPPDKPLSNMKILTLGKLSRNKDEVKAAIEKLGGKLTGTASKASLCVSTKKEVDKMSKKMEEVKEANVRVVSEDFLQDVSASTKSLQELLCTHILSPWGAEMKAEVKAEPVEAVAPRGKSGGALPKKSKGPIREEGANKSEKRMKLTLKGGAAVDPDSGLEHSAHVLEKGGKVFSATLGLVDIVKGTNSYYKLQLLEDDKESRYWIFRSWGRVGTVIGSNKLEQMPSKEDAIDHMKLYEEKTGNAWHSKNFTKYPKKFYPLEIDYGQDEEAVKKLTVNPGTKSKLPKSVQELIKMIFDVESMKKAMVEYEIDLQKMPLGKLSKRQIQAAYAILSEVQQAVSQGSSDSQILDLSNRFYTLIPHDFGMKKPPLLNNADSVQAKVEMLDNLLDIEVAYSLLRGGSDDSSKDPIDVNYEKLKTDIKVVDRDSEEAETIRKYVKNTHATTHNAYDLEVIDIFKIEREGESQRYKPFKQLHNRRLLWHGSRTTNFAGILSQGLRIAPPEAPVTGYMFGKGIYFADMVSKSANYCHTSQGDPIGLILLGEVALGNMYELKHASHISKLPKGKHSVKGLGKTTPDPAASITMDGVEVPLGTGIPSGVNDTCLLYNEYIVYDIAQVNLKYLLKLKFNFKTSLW

SMILES: O=C(O)c1ccc(SSc2ccc(C(=O)O)cn2)nc1 [6,6'-dithiodinicotinic acid]
- Number of Colonies Per Plate With Inhibitor ([1]; 2-Aflatoxin 0 (control) µg/plate): 104
- Number of Colonies Per Plate With Inhibitor ([1]; 2-Aflatoxin 20 µg/plate): 188
- Number of Colonies Per Plate With Inhibitor ([1]; 2-Aflatoxin 50 µg/plate): 358
- Number of Colonies Per Plate With Inhibitor ([1]; 2-Aflatoxin 100 µg/plate): 471
- Number of Colonies Per Plate With Inhibitor ([1]; 2-Aminofluorene 0 (control) µg/plate): 141
- Number of Colonies Per Plate With Inhibitor ([1]; 2-Aminofluorene 5.0 µg/plate): 705
- Number of Colonies Per Plate With Inhibitor ([1]; 2-Aminofluorene 15.0 µg/plate): 655
- Number of Colonies Per Plate With Inhibitor ([1]; 2-Aminofluorene 25.0 µg/plate): 791
- Number of Colonies Per Plate With Inhibitor ([1]; Benzo-[a]-pyrene 0 (control) µg/plate): 111
- Number of Colonies Per Plate With Inhibitor ([1]; Benzo-[a]-pyrene 2.5 µg/plate): 339
- Number of Colonies Per Plate With Inhibitor ([1]; Benzo-[a]-pyrene 5.0 µg/plate): 446
- Number of Colonies Per Plate With Inhibitor ([1]; Benzo-[a]-pyrene 10.0 µg/plate): 488
- inhibition at 0.3 mg/plate ([1]; 2-Aminofluorene 5.0 µg/plate, inhibitor 0.3 mg/plate, read-out: Decrease (%)): 10%
- inhibition at 0.3 mg/plate ([1]; Benzo-[a]-pyrene 2.5 µg/plate, inhibitor 0.3 mg/plate, read-out: Decrease (%)): 74%
- inhibition at 0.3 mg/plate ([1]; Benzo-[a]-pyrene 5.0 µg/plate, inhibitor 0.3 mg/plate, read-out: Decrease (%)): 62%
- inhibition at 0.3 mg/plate ([1]; Benzo-[a]-pyrene 10.0 µg/plate, inhibitor 0.3 mg/plate, read-out: Decrease (%)): 58%
- inhibition at 0.3 mg/plate ([1]; read-out: Decrease (%), 2-Aflatoxin 0 (control) µg/plate, inhibitor 0.3 mg/plate): 0%
- inhibition at 0.3 mg/plate ([1]; read-out: Decrease (%), 2-Aflatoxin 20 µg/plate, inhibitor 0.3 mg/plate): 63%
- inhibition at 0.3 mg/plate ([1]; read-out: Decrease (%), 2-Aflatoxin 50 µg/plate, inhibitor 0.3 mg/plate): 68%
- inhibition at 0.3 mg/plate ([1]; read-out: Decrease (%), 2-Aflatoxin 100 µg/plate, inhibitor 0.3 mg/plate): 72%
- inhibition at 0.3 mg/plate ([1]; read-out: Decrease (%), 2-Aminofluorene 0 (control) µg/plate, inhibitor 0.3 mg/plate): 0%
- inhibition at 0.3 mg/plate ([1]; read-out: Decrease (%), 2-Aminofluorene 15.0 µg/plate, inhibitor 0.3 mg/plate): 72%
- inhibition at 0.3 mg/plate ([1]; read-out: Decrease (%), 2-Aminofluorene 25.0 µg/plate, inhibitor 0.3 mg/plate): 63%
- inhibition at 0.3 mg/plate ([1]; read-out: Decrease (%), Benzo-[a]-pyrene 0 (control) µg/plate, inhibitor 0.3 mg/plate): 0%
- inhibition at 0.3 mg/plate ([1]; read-out: number of mutants decreased, present in the culture prior to addition of carcinogen (benzo-[a]-pyrene, 2-aflatoxin, or 2-aminofluorene)): ~70%
- mutagenic effect of carcinogenic chemicals ([1]; benzo-[a]-pyrene, 2-aflatoxin, and 2-aminofluorene): greatly diminished
- inhibition at 5 µg/mL [2, 5]: 0%
- inhibition at 5 µg/mL [2, 6]: 14%
- inhibition at 25 µg/mL [2, 5]: 0%
- inhibition at 25 µg/mL [2, 6]: 0%
- inhibition at 50 µg/mL [2, 5]: 37%
- inhibition at 50 µg/mL [2, 6]: 38%
- inhibition at 100 µg/mL [2, 5]: 68%
- inhibition at 100 µg/mL [2, 6]: 54%
- inhibition at 150 µg/mL ([2]; 150 µg/ml, 2mM DTT, individual incubation, read-out: Percent Inhibition at: 7.5 min.): 88%
- inhibition at 150 µg/mL ([2]; 150 µg/ml, 2mM DTT, individual incubation, read-out: Percent Inhibition at: 15 min.): 70%
- inhibition at 150 µg/mL ([2]; 150 µg/ml, 2mM DTT, individual incubation, read-out: Percent Inhibition at: 20 min.): 90%
- extent of conversion of substrate to bound product after addition of excess DTT ([2]; 150 µg/ml, excess DTT added to incubation): did not increase
- inhibition at 300 µg/mL ([2]; 300 µg/ml, 2mM DTT, individual incubation, read-out: Percent Inhibition at: 20 min.): 93%
- inhibition at 600 µg/mL ([2]; 600 µg/ml, 2mM DTT, individual incubation, read-out: Percent Inhibition at: 20 min.): 83%
- inhibition of ADPRP ([2]; at 50 µg/ml, 2mM DTT): Significant and specific inhibition
- inhibition of ADPRP ([2]; at 150 µg/ml and above (0.5 molar equivalents of DTT and above)): almost complete inhibition
- inhibition of ADPRP ([2]; at 5 and 25 µg/ml): No inhibition
- toxicity [3]: not a toxic compound
- prevention of metastases [4]: known to prevent metastases in mice
